In patent US10696946B2, “T-REG cell expansion” (The Board of Trustees of the University of Illinois, priority 2013, dated 2020):
Where two headings read alike, the source gives them in different places.

What was measured:
Treg cell proliferation = test: Pathway inhibitors on OX40L, JAG1 and IL-2-induced Treg proliferation (flow cytometry); format: cell-based, mouse; details: CD4+ T-cells from NOD mice pre-treated with inhibitor
Method: FIG. 21. Role of NF-κB and STAT5 signaling pathways in OX40L-JAG1-IL-2 induced Treg proliferation and Foxp3 expression. (A) CD4+ T-cells from NOD mice were pre-treated with pharmacological inhibitors of indicated cell signaling pathways and treated with soluble OX40L-JAG1-IL-2. Effect of these pathway inhibitors on Treg cell proliferation was measured by flow cytometry analysis. (B) RT-qPCR analysis showing effect of inhibitors of NF-κB and STAT5 signaling pathways on Foxp3 mRNA expression (Values represent Mean±SEM, n=3, *p<0.05, **p<0.01, ***p<0.001 Vs control, ^#p<0.05, ^##p<0.01 Vs None-OX40L-JAG1-IL-2). (C) Western blot analysis showing effect of inhibitors of NF-κ B and STAT5 signaling pathways on Foxp3 protein expression. Western blot analysis of the time dependent effect of soluble OX40L-JAG1-IL-2 on (D) Foxp3 expression, (E) NF-κ B p65 phosphorylation and (F) STAT5 phosphorylation in CD4+ T-cells. […]
CD4+ T-cells (1×10^6 cells/ml) were treated with soluble OX40 L, JAG1 and IL-2 as mentioned above. […] Foxp3, pp65 and pSTAT5 signal intensities were normalized to β-actin, total p65 and STAT5 signal intensities and expressed as fold change over respective controls.

Foxp3 = test: Pathway inhibitors on OX40L, JAG1 and IL-2-induced Foxp3 expression (RT-qPCR, Western blot); format: cell-based, mouse; details: at 24 h
Method: CD4+ T-cells (1×10^6 cells/ml) were treated with soluble OX40 L, JAG1 and IL-2 as mentioned above. In some experiments cells were pre-treated with inhibitors of Notch (GSI-R04929097, Selleckchem), NF-κ B (BAY-11-7082, Sigma-Aldrich) and STAT5 (CAS 285986-31-4, Calbiochem) signaling for 2 h and co-treated with soluble ligands for different time intervals. Cells were washed with PBS, and lysed in Laemmli buffer (Biorad) and resolved in 10% SDS-PAGE gels. Proteins were transferred to PVDF membranes (Biorad), blocked with 5% skimmed milk and incubated with primary anti-mouse Foxp3 (1:1000, ebioscience), anti-mouse phospho p65 (Ser536) and phospho STAT5 (Tyr694) (1:500, Cell Signaling Technology) antibodies. Blots were then washed, incubated with secondary anti-rabbit IgG-HRP and developed using ECL detection kit (Pierce Scientific). […] Foxp3, pp65 and pSTAT5 signal intensities were normalized to β-actin, total p65 and STAT5 signal intensities and expressed as fold change over respective controls.
For some experiments, resting and proliferating Tregs were sorted based on cell trace violet dilution. […] Gene expression values were calculated by comparative Δ Ct method after normalization to GAPDH internal control and expressed as fold change over respective controls. […] Data were analyzed using the R-package software. […]

Notch signaling = test: GSI-treated CD4+ T-cells from NOD mice co-cultured with G-BMDCs, proliferation by flow cytometry; format: cell-based, mouse; details: indicated concentrations, 5 days with G-BMDCs
Method: FIG. 13. […] (A) CD4+ T-cells from NOD mice were treated with γ-secretase inhibitor (GSI)-R042929097 at indicated concentrations and then co-cultured with G-BMDCs for 5 days. Extent of proliferation was measured by flow cytometry (n=3). (B) Notch3-OX40−, […], Notch3-OX40+, Notch3+OX40+ subsets of CD4^+CD25^+ Treg cells sorted out and co-cultured with G-BMDCs for 5 days and extent of proliferation was analyzed (n=2).
Bone marrow cells were cultured in complete RPMI medium containing 10% heat-inactivated FBS in the presence of 20 ng/ml GM-CSF for 3 days. On days 4 and 6, fresh medium containing 20 ng/ml GM-CSF was added. Non-adherent CD11c^+ DCs from eight day old cultures were enriched using anti-CD11c coated magnetic beads according to the manufacturer's directions (Miltenyi Biotech, Auburn, Calif.). Specific sub-populations of GM-BMDCs and CD4+CD25+ T-cells were sorted using a MoFlo flow cytometer (Beckman/Coulter, Ranch Cucamonga, Calif.) following staining with appropriate antibodies (OX40L, Jagged-1, CD4, CD25). To obtain GFP+ and GFP− cells, total CD4+ cells were first separated using CD4 microbeads (Miltenyi Biotech) and then the cells were sorted based on GFP expression using a MoFlo flow cytometer (Beckman/Coulter). […]

Foxp3+ Tregs = test: GM-BMDC / CD4+ T-cell co-culture, Treg proliferation by CFSE dilution (FACS); format: cell-based, mouse; details: for Treg proliferation: GM-BMDCs alone ~13.2±0.4%
Method: Each in vitro experiment was conducted in triplicate with T-cells, SpDCs and GM-BMDCs pooled from 3 mice. GM-BMDCs (5×10^4) and CD11c^+ SpDCs were cultured with CD4^+, CD4^+CD25^− and CD4^+CD25^+ T-cells at a ratio of 1:2 for 5 days. For proliferation assays, T-cell subpopulations were labelled with CFSE at 10 μM according to manufacturer's instruction (Invitrogen, Carlsbad, Calif.) before co-culturing them with DCs. Some cultures were supplemented with IL-2 (10 U/ml) (R&D Systems), antiOX40L (up to 10 μg/ml) antibody, OX40 agonist (OX-86, 5-10 μg/ml), anti-Jagged-1 (10-20 μg/ml) antibody or anti-Notch3 (10-20 μg/ml) antibody. For blocking experiments with anti-OX40L or anti-Jagged-1 antibodies, GM-BMDCs were pre-treated with the indicated antibodies for 30 min at 37° C. and then used in co-culture with naive CD4^+ T-cells. For blocking experiments with anti-Notch3 antibody, CD4+ T-cells isolated from mouse splenocytes were first treated with anti-Notch3 antibody at two different concentrations (10 and 20 μg/ml) or with 20 μg/ml of an anti-Notch 1 antibody, incubated at 37° C. for 30 minutes and then co-cultured with GM-BMDCs/SpDCs for 5 days. Some co-cultures were supplemented with different concentrations of gamma-secretase inhibitors (GSI) S-2188 (5 and 10 μM) or R04929097 (200 nM-5 μM).
Freshly isolated and ex vivo cultured cells were washed with PBS-BSA-EDTA or PBS containing 0.5% BSA. For surface staining, the cells were labelled with one of the following: specified FITC, PE, APC conjugated antibodies for 30 min, anti-CD4-eFluor-780, CD4-FITC (eBioscience), anti-CD25-PE, anti-CTLA4-PE, anti-CD39-PE, anti-Helios-PE, anti-TIGIT-PE or fixed, permeabilized, and stained with anti-, Anti-Ki67-PE, anti-Foxp3-APC and isotype controls antibodies (eBioscience) (1:100) in dark. […] Stained cells were washed three times and analyzed by Cyan flow cytometer (Beckman/Coulter) and data analysis was done using Summit v4.3 software.

NOD mice = details: cited from earlier work

Molecule: Cc1ccc(S(=O)(=O)/C=C/C#N)cc1 [NF-κB inhibitor]
- OX40L, JAG1 and IL-2-induced Treg proliferation (Treg cell proliferation): significantly blocked
- OX40L, JAG1 and IL-2-induced Foxp3 expression (Foxp3): significantly down regulated

Molecule: O=C(N/N=C/c1coc2ccccc2c1=O)c1cccnc1 [STAT5 inhibitor]
- OX40L, JAG1 and IL-2-induced Treg proliferation (Treg cell proliferation): significantly blocked
- OX40L, JAG1 and IL-2-induced Foxp3 expression (Foxp3): only moderately inhibited

Molecule: CC(C)(C(=O)NCC(F)(F)C(F)(F)F)C(=O)N[C@@H]1C(=O)Nc2ccccc2-c2ccccc21 [R04929097]
- inhibition of Notch signaling / Treg proliferation (Notch signaling): dose-dependent manner
- Treg proliferation (Foxp3+ Tregs; 250 nM): 5.2±0.4%
- Treg proliferation (Foxp3+ Tregs; 5 μM): 1.7±0.3%
- GM-BMDC mediated Treg proliferation (Foxp3+ Tregs; different concentrations (FIG. 8)): abrogated

B1: OX40L: tumor necrosis factor superfamily member with co-stimulatory function, binds OX40 (protein, UniProt P23510 1-183, looked up)
Tumor necrosis factor ligand …: MERVQPLEENVGNAARPRFERNKLLLVASVIQGLGLLLCFTYICLHFSALQVSHRYPRIQSIKVQFTEYKKEKGFILTSQKEDEIMKVQNNSVIINCDGFYLISLKGYFSQEVNISLHYQKDEEPLFQLKKVRSVNSLMVASLTYKDKVYLNVTTDNTSLDDFHVNGGELILIHQNPGEFCVL
- CD4+CD25+Foxp3+ Treg cells (NOD mice; 6-week old NOD mice): increase
- development of diabetes (NOD mice; 6-week old NOD mice): protect
- development of diabetes (NOD mice; 12-week old NOD mice): accelerated diabetes development
